Measurements: patent US11311508B2, “Medicinal composition for preventing or treating secondary hyperparathyroidism under maintenance dialysis” (EA Pharma Co., Ltd., priority 2017, dated 2022)
Counter-ions that a name gives are not always drawn.

What was measured:
[1] = tested on: bilaterally nephrectomized rats; test: Survival of bilaterally nephrectomized rats after single doses; type: in vivo, rat; conditions: five rats per group
Source text: After quarantine and acclimatization periods of 6 days, fifty-one 7-week-old rats (Crl: CD (SD), male) were fed a 100% sucrose diet ad libitum from four days before the surgery. On the day of the surgery, skin incisions were made on the back at the sites of the right and left kidneys under isoflurane anesthesia and the renal capsules were removed to ligate the renal arteries and veins and the ureters using threads before removing the right and left kidneys. A penicillin solution was given upon suturing, and 5 mL of physiological saline was intraperitoneally administered before returning the rats into the breeding cages.
On a day after the bilaterally nephrectomy, the given doses were calculated based on the weight of the selected animals on that day. Group 1 was given a medium (physiological saline), Groups 2, 3 and 4 were given the Compound A1 solution (0.3, 3 and 30 mg/mL, respectively), and Groups 5, 6, 7 and 8 (5 rats per group) were given the comparative compound (0.3, 1, 3 and 10 mg/mL, respectively), each given a single dose of 1 ml/kg from the tail vein. Prior to the administration (0 hour), and 24 and 48 hours after the administration, approximately 300 μL of blood was collected without anesthesia from the tail vein using capillary tubes for obtaining the serum. The blood for obtaining the serum was left to stand at room temperature, and centrifuged in a high speed refrigerated microcentrifuge (10000 rpm, 5 min, 4° C.) within a period of 30 minutes to 2 hours after the blood collection to collect the serum.
The number of rats in each group was five prior to the administration.

in vivo = conditions: Crl:CD(SD), rat, iv, 30 mg/kg
Experimental: The mean±standard error of the serum iPTH concentrations of all individuals prior to the administration (0 hour) was 231±16 pg/ml.
Logistic curve fitting was conducted to establish the response relationship between the serum iPTH concentration 48 hours after the administration and the given dose.

[2] = Emetogenicity in dogs (crossover, intravenous bolus); conditions: male, beagle, dog, in vivo, 1 mg/kg (no vomiting case)
Experimental: A crossover trial was conducted with male beagles (Nosan Beagle, 14-87-month-old, weight: 10.2 kg-15.8 kg). The Compound A1 solutions used in Example 2 were given at 0.3, 1 and 10 mg/kg by bolus administration (0.5 mL/kg, 1 mL/sec) to 3-6 dogs per dose to confirm the manifestation of vomiting immediately after the administration. Administration was conducted once or twice a week with a 2-day interval. Administration was conducted prior to feeding. Symptoms prior to, immediately after, and 15 and 30 minutes after the administration were observed.

[3] = tested on: healthy Japanese male adults; test: Phase I clinical trial (P1), single intravenous dose; type: in vivo, human
Experimental: Thirty-two healthy Japanese male adults were given a single intravenous dose of the test drug (Compound A1) at 0.01 mg, 0.1 mg, 1.0 mg or 2.5 mg in a fasted state to study the pharmacokinetics, pharmacodynamics and safety by a double-blind test using a placebo as a control. Here, the trial drug was administered by diluting a required dose taken from the Compound A1 vial formulation prepared as follows with sterilized water for injection, and filling a syringe with the resultant in accordance with the dose to be administered.
A vial formulation encapsulating 100 mg of Compound A1 in terms of a dehydrate, and sodium chloride, disodium hydrogen phosphate dodecahydrate and sodium dihydrogen phosphate dihydrate as additives in 10 ml of sterilized water for injection

[4] = PK/PD analysis of P1 (three-compartment model, indirect response model incorporating rebound); type: in vivo, human; conditions: male, human, plasma, intravenous
Experimental: (§1) A PK/PD analysis was conducted to estimate the clinically effective dose based on the results from P1. The dose of 2.5 mg seemed to be excessive and thus was eliminated from the analysis. PK (mean plasma concentration) and PD (mean iPTH level normalized by the levels of the placebo group and the 0-hour level) data of the doses of 0.01 mg, 0.1 mg and 1 mg were used. An indirect response model incorporating rebound was used for the PK/PD analysis.
(§2) Based on the results of PK of the three given doses (0.01 mg, 0.1 mg and 1 mg) in P1, the three given doses were simultaneously analyzed using a three-compartment model to calculate the PK parameters (FIG. 5 and Table 2).
(§3) Using the calculated PK parameters as an input function, PK/PD analysis was performed using an indirect response model incorporating rebound (FIG. 6) to calculate the EC50 value in healthy adults (FIG. 7 and Table 3).

healthy adults = test: as above; type: in vivo, human; conditions: Homo sapiens; iPTH decrease, healthy adults, indirect response model incorporating rebound; ± standard error
Experimental: as §1, §2, §3

normal rats = test: PK/PD analysis (EC50) in normal rats; type: in vivo; conditions: Rattus norvegicus, same PK/PD analysis
Source text: (§4) EC50 value in patient with renal failure was estimated based on the calculated EC50 value in healthy adults and the results from the same analysis in normal rats and adenine-treated rat models (pathological rat models). […] Since the difference in the EC50 value between rats in normal state and pathological state is presumed to be caused by the changes in PK that are considered to greatly vary between normal state and pathological state, similar tendency is expected in human as well.

[5] = tested on: adenine-treated rat models; test: PK/PD analysis (EC50) in adenine-treated rat models; type: in vivo; conditions: adenine-treated rat models (pathological rat models), same PK/PD analysis
Source text: as §4

[6] = tested on: patients with renal failure; test: Estimation of EC50, PK and clinically effective dose in patients with renal failure; set-up: species or system human; conditions: scaling factor applied to healthy adult EC50
Source text: as §4
The result from PK fitting, and the contribution rate of renal elimination of the drug (3.2%) calculated using PK-sim (registered trademark) were used to simulate PK prediction in the patients with renal failure. […] As a result, administration of a dose of 0.06 mg/man was estimated to maintain a concentration higher than 1.4 ng/ml for 72 hours (FIG. 8).

[7] = Phase I/II clinical trial, single intravenous administration; type: in vivo, human; conditions: human, plasma, iv; single i.v. 0.025-0.8 mg; read-out: t½
Experimental: (§5) Targeting SHPT patients on maintenance hemodialysis, pharmacokinetics, pharmacodynamics and safety upon single or repeated intravenous administration of Compound A1 were examined by conducting a double-blind test using a placebo as a control.
(§6) Single administration: Based on the clinically effective dose calculated in Example 5, the doses were given at 0.025 mg, 0.05 mg, 0.1 mg, 0.2 mg, 0.4 mg, 0.6 mg and 0.8 mg (7 steps). On the day of trial drug administration, the trial drug was intravenously administered as slow as possible within 60 seconds 2 to 4 hours following the end of dialysis. Here, the trial drug was administered by diluting a required dose taken from the Compound A1 vial formulation prepared as follows with sterilized water for injection, and filling a syringe with the resultant in accordance with the dose to be administered.
(§7) Each item was evaluated according to the predetermined evaluation schedule.
(§8) A vial formulation encapsulating 1 mg of Compound A1 in terms of a dehydrate, and sodium chloride, disodium hydrogen phosphate dodecahydrate and sodium dihydrogen phosphate dihydrate as additives in 10 ml of sterilized water for injection

[8] = tested on: SHPT patients on maintenance hemodialysis; test: as above; type: in vivo, human
Experimental: as §5, §6, §7, §8

[9] = tested on: SHPT patients on maintenance hemodialysis; test: Phase I/II clinical trial, repeated intravenous administration; type: in vivo, human
Experimental: as §5
Repeated administration: Based on the clinically effective dose calculated in Example 5, the doses were given in 3 steps, namely, 0.05 mg, 0.1 mg and 0.2 mg. The trial drug was (intravenously) infused from the venous side of the dialysis circuit before the end of dialysis three times a week for 22 days (total of 9 times) starting from the first day of administration of the trial drug. Here, the trial drug was administered by diluting a required dose taken from the Compound A1 vial formulation prepared as follows with sterilized water for injection, and filling a syringe with the resultant in accordance with the dose to be administered.
as §7, §8

normal rat = test: Non-clinical studies of excretion and elimination; type: in vivo
Source text: Compound A1 is a CaSR activator used for intravenous administration.

In the case of `Cc1c(Cl)cc(S(=O)(=O)[O-])cc1NC(=O)NC[C@H](N)C(=O)O.[Na+]` [Compound A1, sodium 3-{[(2S)-2-amino-2-carboxyethyl]carbamoylamino}-5-chloro-4-methylbenzenesulfonate], the “survival 48 hours after the administration” value (“survival 48 hours” below) ([1]; all administered groups (0.3, 3 and 30 mg/kg)) is reported as “all five rats survived”, the concentration at 48 h (in vivo) is reported as 18800 ng/mL and the C0 [2] is reported as 18.8 µM. The elimination from plasma ([3]; single i.v. 0.01, 0.1, 1.0 and 2.5 mg) was “rapidly eliminated”, the “safety (side effects)” value ([3]; single i.v. dose) was “non-severe and mild side effects such as vomiting were observed in the 1.0 mg and higher dose groups” and the “serum iPTH concentration compared to before the administration” value ([3]; single i.v. dose) was “decreased in the 0.01 mg and higher dose groups”. The “excretion into the urine” value ([3]; with respect to the given dose) was “excreted into the urine mostly as unchanged substances”, the Vd ([4]; three-compartment model, doses 0.01, 0.1, 1 mg, ± standard error) was 0.0909 ± 0.0114 L/kg and the C0 ([4]; assumed effective dose 0.1 mg/man, from simultaneous fitting of all doses) was 0.0436 µM. For the same compound, the EC50 (healthy adults) was 0.000421 ± 0.000167 µg/mL, the EC50 (normal rats) was < 0.0229 µg/mL and the EC50 [5] was 0.0748 µg/mL. For the same compound, the “EC50 value estimated in the patients with renal failure” value [6] was > 0.0014 µg/mL, the half-life [7] was 65 to 122 h and the “lowering of plasma concentration immediately after dialysis vs just before the dialysis” value ([8]; hemodialysis performed 66 hours after the administration) was 75-81%. For the same compound, the “nausea observed (non-severe and mild)” value ([8]; single administration) was “in the 0.6 mg and higher dose groups”, the “vomiting observed (non-severe and mild)” value ([8]; single administration) was “in the 0.4 mg and higher dose groups” and the “duration of serum iPTH lowering effect after the administration” value ([8]; single administration, until just before the dialysis) was “up to 66 hours”. For the same compound, the accumulating property [9] was “has not no accumulating property”, the “trough concentration in plasma before the dialysis following the longest interval” value [9] was “generally constant” and the “maintenance of serum iPTH lowering effect” value ([9]; test period) was “maintained its effect with repeated administration”. The “form present in the plasma” value ([9]; three times a week for 22 days) was “present mainly as an unchanged substance”, the “elimination from the plasma” value (normal rat; intravenously administered to a normal rat) was “rapidly eliminated from the plasma” and the “main route of excretion” value (normal rat; non-clinical studies) was “renal excretion is the main route of excretion”.
With `CC(=O)N[C@H](CSSC[C@H](N)C(=O)O)C(=O)N[C@H](C)C(=O)N[C@H](CCCNC(=N)N)C(=O)N[C@H](CCCNC(=N)N)C(=O)N[C@H](CCCNC(=N)N)C(=O)N[C@H](C)C(=O)N[C@H](CCCNC(=N)N)C(N)=O` [comparative compound, etelcalcetide (Ac-c(C) arrrar-NH2) TFA salt] the “survival 48 hours” value ([1]; 3 mg/kg group) was “four survived” and the “survival 48 hours” value ([1]; 10 mg/kg group) was “one survived”.
